# Laboratory results: US20250000834A1, “COMPOSITIONS AND METHODS FOR TARGETING GPCR FOR THE PREVENTION AND TREATMENT OF PAIN” (Duke University, priority 2021, published 2025)
# Non-standard residues stand in square brackets, D forms with d. Residues, ends and D or L forms follow the SMILES beside them.
# Experiments:
# [1] = molecular target: T1, hGPR37L1 (Homo sapiens, UniProt O60883); test: Lipid-coated bead pull-down assay with hGPR37L1-expressing cells; assay type: binding; parameters: expressed in transfected cells; host or cells: HEK293 Flp-In cells; conditions: Western blot
# T1 sequence (O60883 26-481): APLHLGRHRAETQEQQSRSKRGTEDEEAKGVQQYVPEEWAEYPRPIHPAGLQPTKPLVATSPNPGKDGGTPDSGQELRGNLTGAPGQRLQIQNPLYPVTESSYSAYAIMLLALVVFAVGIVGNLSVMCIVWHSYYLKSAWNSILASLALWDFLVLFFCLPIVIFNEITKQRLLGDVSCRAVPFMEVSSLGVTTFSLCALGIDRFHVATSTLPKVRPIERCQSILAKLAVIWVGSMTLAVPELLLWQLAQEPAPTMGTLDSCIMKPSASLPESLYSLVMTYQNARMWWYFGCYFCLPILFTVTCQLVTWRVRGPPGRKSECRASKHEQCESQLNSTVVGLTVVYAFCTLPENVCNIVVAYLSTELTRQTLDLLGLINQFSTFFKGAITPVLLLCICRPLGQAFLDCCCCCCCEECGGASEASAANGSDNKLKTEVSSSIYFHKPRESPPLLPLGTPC
# Description: Lipid pull-down assay: Isolated membrane proteins were pre-adsorbed to uncoated control agarose beads (Vector Laboratories, Burlingame, CA); the unbound fraction was collected and incubated 24 hrs at 4° C. with lipid-coated agarose beads (S. Bang et al., GPR37 regulates macrophage phagocytosis and resolution of inflammatory pain. J Clin Invest 128, 3568-3582 (2018)). After extensive washing, bound proteins were eluted from the lipid-coated beads, suspended in Laemmli buffer containing 2% SDS (w/v) and 0.3-M β-mercaptoethanol (Sigma-Aldrich, St. Louis, MO), and heated 5 min at 95° C. to dissolve proteins before separation on 4-20% polyacrylamide/SDS gels as outlined above. The lysate proteins were detected by western blot.
# Western blot: GPR37L1 proteins were isolated from transfected cells, lipid pull-down beads, and mouse DRG. The cells were placed on ice, washed with ice-cold phosphate-buffered saline (PBS), and harvested with ice-cold RIPA buffer (Sigma-Aldrich, St. Louis, MO) with Protease Inhibitor Cocktail Tablet (pH 7.4) (Roche Diagnostics, Indianapolis, IN). The cell lysates were centrifugated for removing insoluble debris and were calculated by BCA assay for detection of protein level, and the supernatant was mixed with 4× Laemmli buffer (Bio-Rad, Hercules, CA) and boiling. Protein samples were […] on 4-15% gradient SDS-PAGE gel (Bio-Rad, Hercules, CA) and blotted on PVDF membrane (Bio-Rad, Hercules, CA). Ponceau S staining was used for the detection of total proteins. The primary antibody was incubated with PBS+1% BSA at 4° C. overnight. We used the following primary antibodies: anti-GPR37L1 antibody (Bioss (Woburn, MA), Rabbit, 1:1000, #bs-15390R); anti-GAPDH antibody (Proteintech (Rosemont, IL), mouse, 1:2000, #60004); and anti-flag antibody (Cell Signaling Technologies (Danvers, MA), Rabbit, 1:1000, #14793). Blots were further incubated with an […] secondary anti-rabbit antibody (Jackson ImmunoResearch Laboratories (West Grove, PA), donkey, 1:5000), developed in ECL solution (Pierce Biotechnology, Appleton, WI)), and visualized in ChemiDoc XRS (Bio-Rad, Hercules, CA). Protein signal intensity was quantified by Image J software (NIH).
# Next, a lipid-coated bead pull-down assay with hGPR37L1-expressing cells was used to confirm whether MaR1 would interact with GPR37L1 protein selectively. […] The right molecule size of GPR37L1 (˜50 kDa) was also validated by the anti-FLAG antibody (data not shown; see U.S. Prov. No. 63/270,198, FIG. 3E).
# [2] = molecular target: T1, hGPR37L1; test: Beta-arrestin assay (PathHunter hGPR37L1 CHO-K1); assay type: cell-based; conditions: hGPR37L1 ChoK1 cells, n=6; for β-arrestin signaling: 0.1 nM to 100 nM; for EC50: read-out: EC50 of β-arrestin response
# Description: Beta-arrestin assay: To screen for GPR37L1 ligands, the PathHunter® eXpress GPR37L1 CHO-K1 kit was purchased from Eurofins Discoveryone™ (DiscoverX Solutions for Drug Discovery, Fremont, CA; Cat #93-0378E2ACP1M). CHO-K1 cells express human GPR37L1 and were grown in 96-well plates for 48 hours. Lipid compounds were incubated with the ChoK1 cells for 1 hour at 37° C., and GPR37L1 activation was determined by measuring chemiluminescence using the beta-arrestin 2 (β-arrestin) detection kit (DiscoverX Solutions for Drug Discovery, Fremont, CA). The luminescent activity was measured using an Infinite F200 Pro Illuminometer (Tecan Trading AG, Switzerland).
# Eight different concentrations of compounds ranging from 0.1 nM to 100 nM were tested.
# [3] = test system: Kir4.1 potassium channels in SGCs; test: Patch-clamp recordings of K+ currents in SGCs of whole-mount DRG; assay type: cell-based, mouse
# Description: Patch-clamp recordings in SGCs of whole-mount DRG: Under urethane anesthesia, mice were rapidly euthanized, followed by careful isolation of lumbar DRGs placed in the oxygenated artificial cerebral spinal fluid (aCSF). DRGs were briefly digested (20 min) using an enzymatic mixture consisting of collagenase A (1 mg/mL) and 0.32 mL Trypsin (0.25% original solution). Intact DRG were then incubated in aCSF oxygenated with 95% O2 and 5% CO2 at 34° C. Following incubation, DRG were transferred to a recording chamber. Isolated DRGs were transferred to a recording chamber continuously perfused (˜3 ml/min) with aCSF. SGCs in whole mouse DRGs could be visualized using a 40× water-immersion objective on an Olympus BX51WI microscope (Olympus Corp., Shinjuku, Japan). The round or fusiform-shaped cell bodies of SGCs were small (<10 μm) but visible near the edges of DRG neurons. Patch pipettes (Chase Scientific Glass Inc., Ramsey, MN) were pulled and filled with a pipette solution containing: 126 mM potassium gluconate, 10 mM NaCl, 1 mM MgCl2, 10 mM EGTA, 2 mM Na-ATP, and 0.1 mM Mg-GTP, adjusted to pH 7.3 with KOH. The resistance of pipettes was 10-12 MΩ. A Whole-cell patch-clamp configuration was made on SGCs at room temperature using a Multiclamp 700B amplifier (Axon Instruments, Union City, CA). Under voltage clamp, at a holding potential of −80 mV, inward or outward currents are triggered by voltage steps of −160 to +40 mV, with 20 mV increment in 200 ms (H. Zhang et al., Altered functional properties of satellite glial cells in compressed spinal ganglia. Glia 57, 1588-1599 (2009)). To isolate inwardly rectifying potassium current (Kir), potassium currents from the same cells were recorded in the absence and presence of 100 μM extracellular barium, which blocks the Kir4.1 channel (C. A. Doupnik, et al, The inward rectifier potassium channel family. Curr Opin Neurobiol 5, 268-277 (1995); X. Tong et al., Astrocyte Kir4.1 ion channel deficits contribute to neuronal dysfunction in Huntington's disease model mice. Nat Neurosci 17, 694-703 (2014)). The Kir4.1 currents were obtained by digitally subtracting those currents in the absence and presence of barium.
# Kir4.1 potassium channels are the predominant potassium channels in SGCs and are chiefly responsible for the potassium currents in SGCs. Dysregulation of SGC Kir4.1 contributes to the pathogenesis of pain (M. Hanani, D. C. Spray, Emerging importance of satellite glia in nervous system function and dysfunction. Nat Rev Neurosci 21, 485-498 (2020)). SGC K^+ currents were recorded by conducting patch-clamp recordings in SGCs in whole-mount DRG preparation (data not shown; see U.S. Prov. No. 63/270,198, FIG. 7A), collected from WT mice, Gpr37l1^+/+ mice, and Gpr37l1^+/− mutant mice (FIG. 11A parts A-C).
# [4] = test system: neuron-glia mixed cultures from DRG; test: IL-1β release in SGC-neuron co-cultures from DRG (ELISA); assay type: cell-based, mouse; conditions: 1 μM for 24 h
# Description: SGC and neuron co-culture: DRG were collected from wild-type (WT) or knock-out (KO) mice (8 weeks male) and incubated in 1 mg/ml Collagenase/Dispase (Roche Diagnostics, Madison, WI, USA) at 37° C. for 60 min, with agitation at 100 revolutions per minute (RPM) and then followed by incubation in 0.05% trypsin/EDTA for 10 min. The digestion enzymes were prepared in Dulbecco's modified Eagle medium/F12 with GlutaMAX (ThermoFisher, Waltham, MA). After incubation of 0.1% trypsin inhibitor and centrifugation (300 G), the cell pellet was gently triturated in a neurobasal medium containing […]. Dissociated DRG cells were seeded on non-coated culture dishes for 4 hrs. SGC and neurons were included for co-culture by hand-shaking of the culture flasks gently for 5 to 10 min and then resuspended by replacing with a new neurobasal medium. The attached glial-like cells were cultured in the DMEM/F12 medium containing 10% fetal bovine serum and 1% streptomycin/penicillin to promote cell growth and inhibition of differentiation. After 2 to 6 days, the glial-like cells were differentiated by application of the serum-free neural basal medium. […]
molecule,measurement,setting,value
"CC/C=C\C/C=C\C/C=C\C/C=C\C/C=C\C/C=C\CCC(=O)O [DHA, reference compound]",GPR37L1 binding in lipid-coated bead pull-down extracts,[1],not binding
"CC/C=C\C[C@H](O)\C=C/C=C/C=C/[C@H](O)C/C=C\C/C=C\CCC(=O)O [NPD1, Neuroprotectin D1]",β-arrestin signaling,[2],1.8 fold increase
same,EC50,[2],1.74 nM
same,GPR37L1 binding in lipid-coated bead pull-down extracts,[1],some weak binding
"CC(=O)O[C@H]1C(=O)[C@@]2(C)[C@H]([C@H](OC(=O)c3ccccc3)[C@]3(O)C[C@H](OC(=O)[C@H](O)[C@@H](NC(=O)c4ccccc4)c4ccccc4)C(C)=C1C3(C)C)[C@]1(OC(C)=O)CO[C@@H]1C[C@@H]2O [PTX, paclitaxel, reference compound]",effect on K+ currents in SGCs,"[3]; 1 μM, 60 min, WT-DRG",substantial reduction
same,IL-1β secretion in culture medium,[4],marked increase
CC/C=C\C[C@H](O)/C=C/C=C\C=C\C=C\[C@@H](O)[C@@H](O)C/C=C\CCC(=O)O [RvD1],GPR37L1 binding in lipid-coated bead pull-down extracts,[1],not binding
CC/C=C\C[C@H](O)[C@H](O)/C=C/C=C/C=C\C=C\[C@@H](O)C/C=C\CCC(=O)O [RvD2],GPR37L1 binding in lipid-coated bead pull-down extracts,[1],not binding
"CC[C@H](C)[C@H](NC(=O)[C@H](CCC(=O)O)NC(=O)[C@H](CCC(=O)O)NC(=O)[C@@H](NC(=O)[C@H](C)NC(=O)[C@H](CC(N)=O)NC(=O)[C@H](CC(N)=O)NC(=O)[C@H](CC(=O)O)NC(=O)[C@@H](NC(=O)[C@H](CC(C)C)NC(=O)[C@@H](C)NC(=O)[C@@H](N)[C@@H](C)O)[C@@H](C)CC)[C@@H](C)O)C(=O)N[C@@H](CC(C)C)C(=O)N[C@@H](Cc1ccc(O)cc1)C(=O)O [TX14, reference compound] (H-T[dA]LIDNNATEEILY-OH; N-terminus and C-terminus assumed)",β-arrestin signaling,[2],3.71 fold increase
same,EC50,[2],9.8 nM
Barium [reference compound],effect on total K+ currents in SGCs,[3]; 100 μM,largely blocked
